Source: patent publication US20260242419A1, “A CYCLIC PEPTIDE FOR TRAPPING INTERLEUKIN-1 BETA” (Merck Sharp & Dohme LLC, priority 2023, published 2026)
Non-standard residues stand in square brackets, D forms with d. Residues, ends and D or L forms follow the SMILES beside them. Phe(4-(5-CO2H-2-pyrimidyl)) = N[C@@H](Cc1ccc(-c2ncc(C(=O)O)cn2)cc1)C(=O)O; Phe(4-(4-Ac-piperazinyl)) = CC(=O)N1CCN(c2ccc(C[C@H](N)C(=O)O)cc2)CC1; dPro(4R-(4-pyridylmethyl)) = O=C(O)[C@H]1C[C@@H](Cc2ccncc2)CN1; Trp(βS-Me,4-F) = C[C@@H](c1c[nH]c2cccc(F)c12)[C@H](N)C(=O)O; Bip(4'-COOH) = N[C@@H](Cc1ccc(-c2ccc(C(=O)O)cc2)cc1)C(=O)O; Ala(1-bicyclo(1.1.1)pentyl) = N[C@@H](CC12CC(C1)C2)C(=O)O; dPro(4R-Bzl(4-F)) = O=C(O)[C@H]1C[C@@H](Cc2ccc(F)cc2)CN1; Ala(pyrimidin-5-yl) = N[C@@H](Cc1cncnc1)C(=O)O; Phe(4-COOH) = N[C@@H](Cc1ccc(C(=O)O)cc1)C(=O)O; Pro(cis-4-F) = O=C(O)[C@@H]1C[C@H](F)CN1; Ala(4-THP) = N[C@@H](CC1CCOCC1)C(=O)O; cisHyp = O=C(O)[C@@H]1C[C@H](O)CN1; 4Pal = N[C@@H](Cc1ccncc1)C(=O)O; aThr = C[C@H](O)[C@H](N)C(=O)O; αMeD = C[C@](N)(CC(=O)O)C(=O)O; d(αMeS) = C[C@@](N)(CO)C(=O)O; Dab = NCC[C@H](N)C(=O)O; Aib = CC(C)(N)C(=O)O; Sar = CNCC(=O)O

Biological target: T1, IL-1β (Homo sapiens, UniProt P01584)
T1 construct: purchased BioLegend 579404
T1 sequence (P01584 117-269): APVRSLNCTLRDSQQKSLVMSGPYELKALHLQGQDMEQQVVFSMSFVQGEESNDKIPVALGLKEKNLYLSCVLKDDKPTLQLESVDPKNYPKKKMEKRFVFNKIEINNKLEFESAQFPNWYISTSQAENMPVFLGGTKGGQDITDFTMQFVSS
Assay: IL-6 assay in MRC5 cells: inhibition of IL-1β induced IL-6 secretion (AlphaLISA)
Assay type: cell-based
Conditions: inhibition of IL-1β induced IL-6 secretion in MRC5 cells; read-out: MRC5 IC50
Outline: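 Compound was pre-incubated 1 h at ambient temperature with recombinant human IL-1β at 2λ EC80 before adding human lung fibroblast MRC5 cells (3000/well) in EMEM with 0.025% BSA. After overnight culture at 37 °C, 5% CO2, secreted IL-6 in conditioned medium was measured by AlphaLISA; IC50 from 4-parameter logistic fits.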

IC50 [nM]	Structure (SMILES)
0.013	C[C@@H](c1c[nH]c2cccc(F)c12)[C@@H]1NC(=O)[C@@H]2C[C@H](O)CN2C(=O)CNC(=O)[C@H](Cc2ccc(C(=O)O)cc2)NC(=O)[C@H](Cc2ccncc2)NC(=O)[C@H](Cc2ccc(-c3ccc(C(=O)O)cc3)cc2)NC(=O)[C@H]2C[C@@H](Cc3ccncc3)CN2C(=O)CNC(=O)[C@H](CCN)NC(=O)[C@H](CCC(N)=O)NC(=O)[C@H](Cc2cncnc2)NC(=O)[C@@](C)(CO)NC(=O)[C@H](Cc2c[nH]c3ccccc23)NC(=O)[C@H](CO)NC(=O)C(C)(C)NC1=O [Example 195] (cyclo([Bip(4'-COOH)][4Pal][Phe(4-COOH)]G[cisHyp][Trp(βS-Me,4-F)][Aib]SW[d(αMeS)][Ala(pyrimidin-5-yl)]Q[Dab]G[dPro(4R-(4-pyridylmethyl))]))
0.038	CC(=O)N1CCN(c2ccc(C[C@@H]3NC(=O)[C@H]4C[C@@H](Cc5ccc(F)cc5)CN4C(=O)CNC(=O)[C@H](CCN)NC(=O)[C@H](CCC(N)=O)NC(=O)[C@H](Cc4cncnc4)NC(=O)C(C)(C)NC(=O)[C@H](Cc4c[nH]c5ccccc45)NC(=O)[C@H](CO)NC(=O)C(C)(C)NC(=O)[C@H]([C@@H](C)c4c[nH]c5cccc(F)c45)NC(=O)[C@@H]4C[C@H](O)CN4C(=O)CNC(=O)[C@H](Cc4ccc(C(=O)O)cc4)NC(=O)[C@H](Cc4ccncc4)NC3=O)cc2)CC1 [Example 196] (cyclo([Phe(4-(4-Ac-piperazinyl))][4Pal][Phe(4-COOH)]G[cisHyp][Trp(βS-Me,4-F)][Aib]SW[Aib][Ala(pyrimidin-5-yl)]Q[Dab]G[dPro(4R-Bzl(4-F))]))
0.036	C[C@@H](c1c[nH]c2cccc(F)c12)[C@@H]1NC(=O)[C@@H]2C[C@H](O)CN2C(=O)CNC(=O)[C@H](Cc2ccc(C(=O)O)cc2)NC(=O)[C@H](Cc2ccncc2)NC(=O)[C@H](Cc2ccc(-c3ncc(C(=O)O)cn3)cc2)NC(=O)[C@H]2C[C@@H](Cc3ccncc3)CN2C(=O)CNC(=O)[C@H](CCN)NC(=O)[C@H](CCC(N)=O)NC(=O)[C@H](Cc2cncnc2)NC(=O)C(C)(C)NC(=O)[C@H](Cc2c[nH]c3ccccc23)NC(=O)[C@H](CO)NC(=O)C(C)(C)NC1=O [Example 197] (cyclo([Phe(4-(5-CO2H-2-pyrimidyl))][4Pal][Phe(4-COOH)]G[cisHyp][Trp(βS-Me,4-F)][Aib]SW[Aib][Ala(pyrimidin-5-yl)]Q[Dab]G[dPro(4R-(4-pyridylmethyl))]))
0.024	C[C@@H](c1c[nH]c2cccc(F)c12)[C@@H]1NC(=O)[C@@H]2C[C@H](F)CN2C(=O)CNC(=O)[C@H](Cc2ccc(C(=O)O)cc2)NC(=O)[C@H](CC23CC(C2)C3)NC(=O)[C@H](Cc2ccc(-c3ncc(C(=O)O)cn3)cc2)NC(=O)[C@H]2C[C@@H](Cc3ccncc3)CN2C(=O)CNC(=O)[C@H](CCN)NC(=O)[C@H](CCC(N)=O)NC(=O)[C@H](Cc2cncnc2)NC(=O)C(C)(C)NC(=O)[C@H](Cc2c[nH]c3ccccc23)NC(=O)[C@H](CO)NC(=O)C(C)(C)NC1=O [Example 198] (cyclo([Phe(4-(5-CO2H-2-pyrimidyl))][Ala(1-bicyclo(1.1.1)pentyl)][Phe(4-COOH)]G[Pro(cis-4-F)][Trp(βS-Me,4-F)][Aib]SW[Aib][Ala(pyrimidin-5-yl)]Q[Dab]G[dPro(4R-(4-pyridylmethyl))]))
0.032	C[C@@H](c1c[nH]c2cccc(F)c12)[C@@H]1NC(=O)[C@@H]2C[C@H](O)CN2C(=O)CNC(=O)[C@H](Cc2ccc(C(=O)O)cc2)NC(=O)[C@H](Cc2ccncc2)NC(=O)[C@H](Cc2ccc(-c3ccc(C(=O)O)cc3)cc2)NC(=O)[C@H]2C[C@@H](Cc3ccncc3)CN2C(=O)CNC(=O)[C@H](CO)NC(=O)[C@H](CCC(N)=O)NC(=O)[C@H](CC2CCOCC2)NC(=O)[C@](C)(CC(=O)O)NC(=O)[C@H](Cc2c[nH]c3ccccc23)NC(=O)[C@H](CO)NC(=O)C(C)(C)NC1=O [Example 199] (cyclo([Bip(4'-COOH)][4Pal][Phe(4-COOH)]G[cisHyp][Trp(βS-Me,4-F)][Aib]SW[αMeD][Ala(4-THP)]QSG[dPro(4R-(4-pyridylmethyl))]))
0.014	C[C@@H](c1c[nH]c2cccc(F)c12)[C@@H]1NC(=O)[C@@H]2C[C@H](F)CN2C(=O)CNC(=O)[C@H](Cc2ccc(C(=O)O)cc2)NC(=O)[C@H](Cc2ccncc2)NC(=O)[C@H](Cc2ccc(-c3ccc(C(=O)O)cc3)cc2)NC(=O)[C@H]2C[C@@H](Cc3ccncc3)CN2C(=O)CNC(=O)[C@H](CCN)NC(=O)[C@H](CCC(N)=O)NC(=O)[C@H](CC2CCOCC2)NC(=O)[C@](C)(CC(=O)O)NC(=O)[C@H](Cc2c[nH]c3ccccc23)NC(=O)[C@H](CO)NC(=O)C(C)(C)NC1=O [Example 200] (cyclo([Bip(4'-COOH)][4Pal][Phe(4-COOH)]G[Pro(cis-4-F)][Trp(βS-Me,4-F)][Aib]SW[αMeD][Ala(4-THP)]Q[Dab]G[dPro(4R-(4-pyridylmethyl))]))
0.019	C[C@@H](c1c[nH]c2cccc(F)c12)[C@@H]1NC(=O)[C@@H]2C[C@H](O)CN2C(=O)CNC(=O)[C@H](Cc2ccc(C(=O)O)cc2)NC(=O)[C@H](Cc2ccncc2)NC(=O)[C@H](Cc2ccc(-c3ccc(C(=O)O)cc3)cc2)NC(=O)[C@H]2C[C@@H](Cc3ccncc3)CN2C(=O)CNC(=O)[C@H](CCN)NC(=O)[C@H](CCC(N)=O)NC(=O)[C@H](CC2CCOCC2)NC(=O)[C@](C)(CC(=O)O)NC(=O)[C@H](Cc2c[nH]c3ccccc23)NC(=O)[C@H](CO)NC(=O)C(C)(C)NC1=O [Example 201] (cyclo([Bip(4'-COOH)][4Pal][Phe(4-COOH)]G[cisHyp][Trp(βS-Me,4-F)][Aib]SW[αMeD][Ala(4-THP)]Q[Dab]G[dPro(4R-(4-pyridylmethyl))]))
0.013	C[C@H](O)[C@@H]1NC(=O)[C@](C)(CC(=O)O)NC(=O)[C@H](Cc2c[nH]c3ccccc23)NC(=O)[C@H](CO)NC(=O)C(C)(C)NC(=O)[C@H]([C@@H](C)c2c[nH]c3cccc(F)c23)NC(=O)[C@@H]2C[C@H](F)CN2C(=O)CNC(=O)[C@H](Cc2ccc(C(=O)O)cc2)NC(=O)[C@H](CC23CC(C2)C3)NC(=O)[C@H](Cc2ccc(-c3ccc(C(=O)O)cc3)cc2)NC(=O)[C@H]2C[C@@H](Cc3ccncc3)CN2C(=O)CNC(=O)[C@H](CCN)NC(=O)[C@H](CCC(N)=O)NC1=O [Example 202] (cyclo([Bip(4'-COOH)][Ala(1-bicyclo(1.1.1)pentyl)][Phe(4-COOH)]G[Pro(cis-4-F)][Trp(βS-Me,4-F)][Aib]SW[αMeD][aThr]Q[Dab]G[dPro(4R-(4-pyridylmethyl))]))
0.016	CC(C)[C@@H]1NC(=O)[C@](C)(CC(=O)O)NC(=O)[C@H](Cc2c[nH]c3ccccc23)NC(=O)[C@H](CO)NC(=O)C(C)(C)NC(=O)[C@H]([C@@H](C)c2c[nH]c3cccc(F)c23)NC(=O)[C@@H]2C[C@H](F)CN2C(=O)CNC(=O)[C@H](Cc2ccc(C(=O)O)cc2)NC(=O)[C@H](CC23CC(C2)C3)NC(=O)[C@H](Cc2ccc(-c3ccc(C(=O)O)cc3)cc2)NC(=O)[C@H]2C[C@@H](Cc3ccncc3)CN2C(=O)CNC(=O)[C@H](CCN)NC(=O)[C@H](CCC(N)=O)NC1=O [Example 203] (cyclo([Bip(4'-COOH)][Ala(1-bicyclo(1.1.1)pentyl)][Phe(4-COOH)]G[Pro(cis-4-F)][Trp(βS-Me,4-F)][Aib]SW[αMeD]VQ[Dab]G[dPro(4R-(4-pyridylmethyl))]))
0.017	C[C@@H](c1c[nH]c2cccc(F)c12)[C@@H]1NC(=O)[C@@H]2C[C@H](F)CN2C(=O)CNC(=O)[C@H](Cc2ccc(C(=O)O)cc2)NC(=O)[C@H](CC23CC(C2)C3)NC(=O)[C@H](Cc2ccc(-c3ccc(C(=O)O)cc3)cc2)NC(=O)[C@H]2C[C@@H](Cc3ccncc3)CN2C(=O)CNC(=O)[C@H](CCN)NC(=O)[C@H](CCC(N)=O)NC(=O)[C@H](CC2CCOCC2)NC(=O)[C@@](C)(CO)NC(=O)[C@H](Cc2c[nH]c3ccccc23)NC(=O)[C@H](CO)NC(=O)C(C)(C)NC1=O [Example 204] (cyclo([Bip(4'-COOH)][Ala(1-bicyclo(1.1.1)pentyl)][Phe(4-COOH)]G[Pro(cis-4-F)][Trp(βS-Me,4-F)][Aib]SW[d(αMeS)][Ala(4-THP)]Q[Dab]G[dPro(4R-(4-pyridylmethyl))]))
0.028	C[C@@H](c1c[nH]c2cccc(F)c12)[C@@H]1NC(=O)[C@@H]2C[C@H](F)CN2C(=O)CNC(=O)[C@H](Cc2ccc(C(=O)O)cc2)NC(=O)[C@H](Cc2ccncc2)NC(=O)[C@H](Cc2ccc(-c3ccc(C(=O)O)cc3)cc2)NC(=O)[C@H]2C[C@@H](Cc3ccncc3)CN2C(=O)CN(C)C(=O)[C@H](CCN)NC(=O)[C@H](CCC(N)=O)NC(=O)[C@H](Cc2cncnc2)NC(=O)C(C)(C)NC(=O)[C@H](Cc2c[nH]c3ccccc23)NC(=O)[C@H](CO)NC(=O)C(C)(C)NC1=O [Example 205] (cyclo([Bip(4'-COOH)][4Pal][Phe(4-COOH)]G[Pro(cis-4-F)][Trp(βS-Me,4-F)][Aib]SW[Aib][Ala(pyrimidin-5-yl)]Q[Dab][Sar][dPro(4R-(4-pyridylmethyl))]))
0.022	C[C@@H](c1c[nH]c2cccc(F)c12)[C@@H]1NC(=O)[C@@H]2C[C@H](F)CN2C(=O)CNC(=O)[C@H](Cc2ccc(C(=O)O)cc2)NC(=O)[C@H](Cc2ccncc2)NC(=O)[C@H](Cc2ccc(-c3ccc(C(=O)O)cc3)cc2)NC(=O)[C@H]2C[C@@H](Cc3ccncc3)CN2C(=O)CN(C)C(=O)[C@H](CCN)NC(=O)[C@H](CCC(N)=O)NC(=O)[C@H](Cc2cncnc2)NC(=O)[C@@](C)(CO)NC(=O)[C@H](Cc2c[nH]c3ccccc23)NC(=O)[C@H](CO)NC(=O)C(C)(C)NC1=O [Example 206] (cyclo([Bip(4'-COOH)][4Pal][Phe(4-COOH)]G[Pro(cis-4-F)][Trp(βS-Me,4-F)][Aib]SW[d(αMeS)][Ala(pyrimidin-5-yl)]Q[Dab][Sar][dPro(4R-(4-pyridylmethyl))]))
